Assay results as given in patent publication US20100184178A1, “INCREASED ISOPRENE PRODUCTION USING MEVALONATE KINASE AND ISOPRENE SYNTHASE” (priority 2008, published 2010).

Columns and labels:
[1] = tested on: Escherichia coli BL21; test: Growth inhibition of Escherichia coli BL21 expressing MVK, PMK, MDD and fed MVA; format: cell-based; conditions: 5.8 mM MVA
Experimental: FIG. 145 is a graph of growth curves for cultures of BL21 expressing MVK, circles; MVK+PMV, triangles; MVK+PMV+MDD, squares. Cultures were either fed 5.8 mM MVA, filled symbols, or grown without addition of MVA, open symbols. Y-axis is OD600. Samples were taken for analysis at times indicated by the arrow. Numbers above the arrows correspond to E. coli BL21 cells bearing pTrcK, representing a plasmid expressing MVK (#5), pTrcKK representing a plasmid expressing MVK plus PMK (#7), and pTrcKKD, representing a plasmid expressing MVK plus PMK plus MDD (#6) were grown.
The purpose of this experiment was to determine the effect of the expression of the proteins mevalonate kinase (MVK), phophomevalonate kinase (PMK), and diphosphomevalonate decarboxylase (MDD) of Escherichia coli cultures.
E. coli BL21 cells bearing pTrcK, representing a plasmid expressing MVK, pTrcKK representing a plasmid expressing MVK plus PMK, and pTrcKKD, representing a plasmid expressing MVK plus PMK plus MDD were grown at approximately 30° C. and 250 rpm in 250 mL flasks containing 25 mL of TM3 medium (13.6 g K2PO4, 13.6 g KH2PO4, 2.0 g MgSO4*7H2O) supplemented with 1% glucose and 0.8 g/L Biospringer yeast extract (1% Yeast extract final). When OD600 reached 0.8 to 0.9, 5.8 mM mevalonic acid was added to the cultures and incubation was continues for an additional 5 hours. OD600 measurements were taken, and the cultures were sampled for metabolite analysis at 2 hours post MVA addition. Samples were collected into 100% MeOH prechilled in dry ice in a ratio of 1:1. Samples were stored at −80° C. until analyzed as follows. The methanol-quenched cells were pelleted by centrifugation and the resulting supernatant was loaded onto Strata-X-AW anion exchange column (Phenomenex) containing 30 mg of sorbent. The pellet was reextracted twice with several milliliters of 50%, v/v, aqueous methanol containing 20% ammonium bicarbonate buffer (pH=8.0) and then with 75%, v/v, aqueous bicarbonate-buffered methanol. […]

[2] = about 1 atmosphere and about 60° F.; cited from earlier work
[3] = Flammability modeling (CAFT) and experimental flammability testing of isoprene; format: physicochemical
Text: Thus, computer modeling and experimental testing were used to determine the flammability limits of isoprene (such as isoprene in the presence of O2, N2, CO2, or any combination of two or more of the foregoing gases) in order to ensure process safety. The flammability envelope is characterized by the lower flammability limit (LFL), the upper flammability limit (UFL), the limiting oxygen concentration (LOC), and the limiting temperature. For a system to be flammable, a minimum amount of fuel (such as isoprene) must be in the presence of a minimum amount of oxidant, typically oxygen. The LFL is the minimum amount of isoprene that must be present to sustain burning, while the UFL is the maximum amount of isoprene that can be present. Above this limit, the mixture is fuel rich and the fraction of oxygen is too low to have a flammable mixture. The LOC indicates the minimum fraction of oxygen that must also be present to have a flammable mixture. The limiting temperature is based on the flash point of isoprene and is that lowest temperature at which combustion of isoprene can propagate. […]
The LOC was determined to be 9.5 vol % for an isoprene, O2, N2, and CO2 mixture at 40° C. and 1 atmosphere. […]
Calculated adiabatic flame temperatures (CAFT) along with a selected limit flame temperature for combustion propagation were used to determine the flammability envelope for isoprene. […]

C[C@@](O)(CCO)CC(=O)O [MVA, mevalonic acid]
growth (OD600) ([1]; BL21 pTrcK, MVK only (strain #5)): No growth inhibition was observed | growth (OD600) ([1]; BL21 pTrcKK, MVK plus PMK (strain #7)): inhibition of growth was evident | growth (OD600) ([1]; BL21 pTrcKKD, MVK plus PMK plus MDD (strain #6)): additional inhibition is observed

CCO [ethanol]
LFL [2]: about 3.3 vol % | LOC [2]: about 8.7 vol %

C=CC(=C)C [isoprene, 2-methyl-1,3-butadiene]
limiting oxygen concentration (LOC) ([3]; isoprene, O2, N2, and CO2 mixture at 40° C. and 1 atmosphere): 9.5 vol % | limiting temperature ([3]; lowest temperature at which combustion of isoprene can propagate): about −54 °C
